Measurements as given in patent publication US12006301B1, “And synthesis of dual 5-HT1A and 5-HT7 receptor ligands” (Florida A&M University, priority 2021, dated 2024).
Where a name gives a salt, the structure may show the parent alone. Read-outs that look alike come from different tables or passages of the source.

Legend:
[1] = target: serotonin transporter (SERT) (Homo sapiens, UniProt P31645); assay: NIMH-PDSP radioligand binding affinity, SERT; conditions: read-out: SERT binding, 50% threshold inhibition (MT)
serotonin transporter (SERT), sequence (P31645 whole entry, species assumed): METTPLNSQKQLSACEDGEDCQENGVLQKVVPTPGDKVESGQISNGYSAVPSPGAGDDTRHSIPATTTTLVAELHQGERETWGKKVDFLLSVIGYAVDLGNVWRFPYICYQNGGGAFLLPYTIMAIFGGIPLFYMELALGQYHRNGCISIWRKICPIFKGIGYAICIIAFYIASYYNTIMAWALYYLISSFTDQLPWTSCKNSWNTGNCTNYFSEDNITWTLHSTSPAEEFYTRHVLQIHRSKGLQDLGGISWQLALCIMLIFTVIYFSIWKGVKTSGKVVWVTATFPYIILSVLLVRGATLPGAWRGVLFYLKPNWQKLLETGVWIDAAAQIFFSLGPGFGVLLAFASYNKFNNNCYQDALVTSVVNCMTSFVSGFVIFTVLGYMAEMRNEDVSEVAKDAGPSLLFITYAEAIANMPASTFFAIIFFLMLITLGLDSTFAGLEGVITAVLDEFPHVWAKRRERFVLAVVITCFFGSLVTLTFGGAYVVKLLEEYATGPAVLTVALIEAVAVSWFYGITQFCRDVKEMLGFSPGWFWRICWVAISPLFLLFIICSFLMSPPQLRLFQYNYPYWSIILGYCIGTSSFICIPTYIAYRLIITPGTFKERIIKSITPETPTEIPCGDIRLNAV
Experimental: Binding affinities reported in Tables 1-3 were conducted by the National Institute of Mental Health Psychoactive Drug Screening Program (NIMH-PDSP).

[2] = animal studies, cited from earlier work
[3] = animal models, rats, cited from earlier work
[4] = target: T1, 5-HT2CR (Homo sapiens, UniProt P28335); assay: NIMH-PDSP radioligand binding affinity, 5-HT2C; conditions: for inhibition at 10 µM: read-out: 5-HT2C binding, 50% threshold inhibition (MT)
T1 sequence (P28335 33-458): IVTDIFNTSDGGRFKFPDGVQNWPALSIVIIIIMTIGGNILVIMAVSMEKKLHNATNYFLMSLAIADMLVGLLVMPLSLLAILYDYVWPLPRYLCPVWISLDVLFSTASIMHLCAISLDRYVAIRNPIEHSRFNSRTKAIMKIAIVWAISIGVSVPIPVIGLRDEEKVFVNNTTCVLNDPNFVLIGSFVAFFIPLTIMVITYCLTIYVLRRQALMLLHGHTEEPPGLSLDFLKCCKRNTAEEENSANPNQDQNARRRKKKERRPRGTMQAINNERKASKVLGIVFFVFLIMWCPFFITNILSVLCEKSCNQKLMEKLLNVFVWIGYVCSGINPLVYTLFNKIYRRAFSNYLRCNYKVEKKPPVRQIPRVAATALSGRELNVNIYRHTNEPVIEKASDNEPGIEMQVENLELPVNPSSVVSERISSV

[5] = target: D2R (Homo sapiens, UniProt P14416); assay: NIMH-PDSP radioligand binding affinity, D2; conditions: for inhibition at 10 µM: read-out: D2 binding, 50% threshold inhibition (MT)
D2R, sequence (P14416 whole entry): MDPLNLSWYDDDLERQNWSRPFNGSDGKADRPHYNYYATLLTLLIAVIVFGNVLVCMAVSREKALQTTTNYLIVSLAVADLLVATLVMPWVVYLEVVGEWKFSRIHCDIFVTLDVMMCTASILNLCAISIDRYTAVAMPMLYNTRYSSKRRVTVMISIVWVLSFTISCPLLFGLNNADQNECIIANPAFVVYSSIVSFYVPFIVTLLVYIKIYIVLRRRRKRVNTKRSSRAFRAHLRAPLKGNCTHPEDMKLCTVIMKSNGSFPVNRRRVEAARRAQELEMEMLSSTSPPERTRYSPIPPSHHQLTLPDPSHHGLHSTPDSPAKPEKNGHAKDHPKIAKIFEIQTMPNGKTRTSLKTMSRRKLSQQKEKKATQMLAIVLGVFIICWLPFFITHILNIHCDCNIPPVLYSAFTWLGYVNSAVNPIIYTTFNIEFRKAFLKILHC

[6] = target: T2, D4R (Homo sapiens, UniProt P21917); assay: NIMH-PDSP radioligand binding affinity, D4; conditions: read-out: D4 binding, 50% threshold inhibition (MT)
T2 sequence (P21917 1-419): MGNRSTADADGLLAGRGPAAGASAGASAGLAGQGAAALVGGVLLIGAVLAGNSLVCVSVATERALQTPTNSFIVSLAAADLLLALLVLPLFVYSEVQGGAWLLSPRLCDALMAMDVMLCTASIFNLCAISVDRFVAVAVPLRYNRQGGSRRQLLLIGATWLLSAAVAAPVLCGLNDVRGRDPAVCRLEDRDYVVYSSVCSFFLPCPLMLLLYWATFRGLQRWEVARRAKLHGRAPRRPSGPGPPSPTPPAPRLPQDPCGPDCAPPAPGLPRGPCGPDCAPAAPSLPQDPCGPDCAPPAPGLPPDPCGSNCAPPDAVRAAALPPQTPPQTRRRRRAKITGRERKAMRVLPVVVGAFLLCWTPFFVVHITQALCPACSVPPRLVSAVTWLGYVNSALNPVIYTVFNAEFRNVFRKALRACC

[7] = target: D3R (Homo sapiens, UniProt P35462); assay: NIMH-PDSP radioligand binding affinity, D3
D3R, sequence (P35462 whole entry): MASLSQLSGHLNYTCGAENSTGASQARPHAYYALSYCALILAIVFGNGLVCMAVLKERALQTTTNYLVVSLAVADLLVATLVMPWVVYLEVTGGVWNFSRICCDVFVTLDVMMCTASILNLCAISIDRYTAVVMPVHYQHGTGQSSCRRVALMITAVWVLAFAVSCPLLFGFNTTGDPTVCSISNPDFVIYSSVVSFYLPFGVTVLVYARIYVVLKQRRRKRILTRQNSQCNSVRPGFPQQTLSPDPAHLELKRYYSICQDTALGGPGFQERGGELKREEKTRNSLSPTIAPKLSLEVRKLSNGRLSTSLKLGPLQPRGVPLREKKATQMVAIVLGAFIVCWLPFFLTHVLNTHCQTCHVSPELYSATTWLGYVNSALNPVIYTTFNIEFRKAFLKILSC

[8] = target: T3, 5-HT7AR (Homo sapiens, UniProt P34969); assay: HEK-5-HT7A/cAMP adenylate cyclase functional assay, agonist effects; format: cell-based
T3 construct: expressed in transfected cells; host or cells: Human embryonic kidney (HEK) cells, transient transfection with PEI
T3 sequence (P34969 1-445 isoform P34969-2): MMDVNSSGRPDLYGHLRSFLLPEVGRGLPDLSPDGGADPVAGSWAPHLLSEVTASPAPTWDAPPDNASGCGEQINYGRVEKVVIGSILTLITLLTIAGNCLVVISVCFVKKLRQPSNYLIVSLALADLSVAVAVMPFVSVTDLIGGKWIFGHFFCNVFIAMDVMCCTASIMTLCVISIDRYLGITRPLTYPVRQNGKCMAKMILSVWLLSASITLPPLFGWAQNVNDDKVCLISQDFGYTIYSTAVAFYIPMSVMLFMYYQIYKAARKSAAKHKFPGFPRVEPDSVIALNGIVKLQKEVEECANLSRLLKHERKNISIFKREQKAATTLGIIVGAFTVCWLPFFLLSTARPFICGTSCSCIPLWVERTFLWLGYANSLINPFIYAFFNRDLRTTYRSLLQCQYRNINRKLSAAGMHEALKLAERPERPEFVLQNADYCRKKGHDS

CC(=O)Nc1ccc(CCCCN2CCN(c3ccccn3)CC2)cc1 [Compound 4, N-(4-(4-(4-(pyridin-2-yl)piperazin-1-yl)butyl)phenyl)acetamide]
inhibition at 10 µM [1]: < 50%

O=C1CCc2cc(CCCCN3CCN(c4ccccn4)CC3)ccc2N1 [Compound 8, 6-(4-(4-(pyridin-2-yl)piperazin-1-yl)butyl)-3,4-dihydroquinolin-2(1H)-one]
melting point: 144 to 145 °C

Fc1ccc(CCCCN2CCN(c3ccccn3)CC2)cc1 [Compound 2, 1-(4-(4-fluorophenyl)butyl)-4-(pyridin-2-yl)piperazine]
antipsychotic-like activity (in words) ([2]; listed as SYA 16263): moderate antipsychotic-like activity
antipsychotic-like activity (in words) ([2]; listed as SYA16263): antipsychotic-like properties
catalepsy / motoric side effects (in words) [3]: low propensity to cause catalepsy
catalepsy / motoric side effects (in words) ([3]; listed as SYA 16263): low propensity to cause motoric side effects
catalepsy / motoric side effects (in words) ([3]; listed as SYA16263): absence of catalepsy

O=C1c2ccc(Cl)cc2CC1CCCCN1CCN(c2ccccn2)CC1 (centres unmarked) (as salt: HCl) [Compound 20, 5-chloro-2-(4-(4-(pyridin-2-yl)piperazin-1-yl)butyl)-2,3-dihydro-1H-inden-1-one]
melting point: 233 to 234 °C

O=C1c2ccc(F)cc2CC1CCN1CCN(c2ccccn2)CC1 (centres unmarked) [Compound 13, 5-Fluoro-2-(2-(4-(pyridin-2-yl)piperazin-1-yl)ethyl)-2,3-dihydro-1H-inden-1-one]
5-HT2C binding, 50% threshold inhibition (MT) ([4]; 10 µM): MT (key: MT = missed 50% threshold inhibition at 10 μM concentration)
inhibition at 10 µM [1]: < 50%
binding affinity at D2R (in words) [5]: complete loss of binding affinity
inhibition at 10 µM [5]: < 50%

O=C1CCc2cc(OCCCN3CCCN(c4ccccn4)CC3)ccc2N1 [Compound 10, 6-(3-(4-(pyridin-2-yl)-1,4-diazepan-1-yl)propoxy)-3,4-dihydroquinolin-2(1H)-one oxalate]
inhibition at 10 µM [6]: < 50%

Nc1ccc(CCCCN2CCN(c3ccccn3)CC2)cc1 [Compound 6, 4-(4-(4-(pyridin-2-yl)piperazin-1-yl)butyl)aniline]
inhibition at 10 µM [4]: < 50%
inhibition at 10 µM [1]: < 50%

O=C1c2cc(Cl)ccc2CC1CCN1CCN(c2ccccn2)CC1 (centres unmarked) [Compound 17, 6-chloro-2-(2-(4-(pyridin-2-yl)piperazin-1-yl)ethyl)-2,3-dihydro-1H-inden-1-one]
inhibition at 10 µM [1]: < 50%

O=C(CCCN1CCN(c2ccccn2)CC1)c1ccc2c(c1)CCC2 [Compound 12, 1-(2,3-Dihydro-1H-inden-5-yl)-4-(4-(pyridin-2-yl)piperazin-1-yl)butan-1-one]
melting point: 74 to 75 °C
inhibition at 10 µM [1]: < 50%

OC1c2ccc(F)cc2CC1CCN1CCN(c2ccccn2)CC1 (centres unmarked) [Compound 14, 5-Fluoro-2-[2-(4-pyridin-2-yl-piperazin-1-yl)-ethyl]-indan-1-ol]
inhibition at 10 µM [4]: < 50%

CC(=O)Nc1ccc(C(=O)CCCN2CCN(c3ccccn3)CC2)cc1 (as salt: oxalate) [Compound 3, N-(4-(4-(4-(pyridin-2-yl)piperazin-1-yl)butanoyl)phenyl) acetamide oxalate]
melting point: 140 to 142 °C

OC1c2ccc(F)cc2CC1CCN1CCN(c2ccccn2)CC1 (centres unmarked) (as salt: hydroiodid) [Compound 14, 5-Fluoro-2-[2-(4-pyridin-2-yl-piperazin-1-yl)-ethyl]-indan-1-ol]
melting point: 174 to 175 °C

O=C1CCc2cc(OCCCN3CCCN(c4ccccn4)CC3)ccc2N1 (as salt: oxalate) [Compound 10, 6-(3-(4-(pyridin-2-yl)-1,4-diazepan-1-yl)propoxy)-3,4-dihydroquinolin-2(1H)-one oxalate]
melting point: 190 to 192 °C

O=C1c2ccc(Cl)cc2CC1CCN1CCN(c2ccccn2)CC1 (centres unmarked) [Compound 15, 5-chloro-2-(2-(4-(pyridin-2-yl)piperazin-1-yl)ethyl)-2,3-dihydro-1H-inden-1-one]
melting point: 132 to 135 °C
inhibition at 10 µM [1]: < 50%
binding affinity at D2R (in words) [5]: lost
inhibition at 10 µM [5]: < 50%
binding affinity at D3R (in words) [7]: lost
inhibition at 10 µM ([7]; read-out: D3 binding, 50% threshold inhibition (MT)): < 50%

O=C1CCc2cc(C(=O)CCCN3CCN(c4ccccn4)CC3)ccc2N1 [Compound 7, 6-(4-(4-(pyridin-2-yl)piperazin-1-yl)butanoyl)-3,4-dihydroquinolin-2(1H)-one]
inhibition at 10 µM [4]: < 50%
melting point: 192 to 193 °C
inhibition at 10 µM [1]: < 50%

O=C1c2ccc(Cl)cc2CC1CCCN1CCN(c2ccccn2)CC1 (centres unmarked) [drawing 43]
inhibition at 10 µM [1]: < 50%

Clc1ccc2c(c1)CC(CCN1CCN(c3ccccn3)CC1)C2 (centres unmarked) (as salt: HCl) [Compound 16, 1-(2-(5-chloro-2,3-dihydro-1H-inden-2-yl)ethyl)-4-(pyridin-2-yl)piperazine]
melting point: 267 to 270 °C

Clc1ccc2c(c1)CC(CCN1CCN(c3ccccn3)CC1)C2 (centres unmarked) [Compound 16, 1-(2-(5-chloro-2,3-dihydro-1H-inden-2-yl)ethyl)-4-(pyridin-2-yl)piperazine]
inhibition at 10 µM [1]: < 50%

NCCc1c[nH]c2ccc(O)cc12 [Serotonin]
agonist activity at 5-HT7AR (in words) [8]: showed agonist properties

Nc1ccc(C(=O)CCCN2CCN(c3ccccn3)CC2)cc1 [Compound 5, 1-(4-aminophenyl)-4-(4-(pyridin-2-yl)piperazin-1-yl)butan-1-one]
melting point: 203 to 204 °C
inhibition at 10 µM [1]: < 50%

O=C1c2ccc(Cl)cc2CC1CCCN1CCN(c2ccccn2)CC1 (centres unmarked) [Compound 19, 5-chloro-2-(3-(4-(pyridin-2-yl)piperazin-1-yl)propyl)-2,3-dihydro-1H-inden-1-one]
inhibition at 10 µM [5]: < 50%

CC(=O)Nc1ccc(C(=O)CCCN2CCN(c3ccccn3)CC2)cc1 [Compound 3, N-(4-(4-(4-(pyridin-2-yl)piperazin-1-yl)butanoyl)phenyl) acetamide oxalate]
inhibition at 10 µM [1]: < 50%

O=C1CCc2cc(OCCCN3CCN(c4ccccn4)CC3)ccc2N1 [Compound 9, 6-(3-(4-(pyridin-2-yl)piperazin-1-yl)propoxy)-3,4-dihydroquinolin-2(1H)-one]
melting point: 154 to 155 °C

O=C1c2cc(Cl)c(Cl)cc2CC1CCN1CCN(c2ccccn2)CC1 (centres unmarked) [Compound 18, 5,6-Dichloro-2-(2-(4-(pyridin-2-yl)piperazin-1-yl)ethyl)-2,3-dihydro-1H-inden-1-one]
inhibition at 10 µM [1]: < 50%

O=C1CCc2cc(OCCCN3CCN(c4ccccn4)CC3)ccc21 [Compound 11, 5-(3-(4-(pyridin-2-yl)piperazin-1-yl)propoxy)-2,3-dihydro-1H-inden-1-one]
melting point: 103 to 104 °C
inhibition at 10 µM [1]: < 50%
inhibition at 10 µM [5]: < 50%
